From article PMC7156458, “Synthetic biology based construction of biological activity-related library of fungal decalin-containing diterpenoid pyrones” (Nature Communications, 2020)

Biological target: Aβ42 (Homo sapiens, UniProt P05067)
Experiment: Th-T (thioflavin-T) assay of Aβ42 aggregation
Type: biochemical
Details: for Th-T fluorescence, mean of three wells: Aβ42 aggregation time course

Aβ42, sequence (P05067 672-713): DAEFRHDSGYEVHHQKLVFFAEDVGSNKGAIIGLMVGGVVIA

## C=C1CC[C@@H]2[C@](C)(CC[C@H]3O[C@H](C=C(C)C)C[C@@]23C)[C@@H]1Cc1c(OC)oc(CO)c(C)c1=O [Compound 20]
  delay of the nucleation phase: no delay
  elongation of Aβ42: partly suppressed the elongation of Aβ42
Aβ42 (10 μM) ± DPPs (20 μM), room temperature
  first Th-T assay result: slightly suppressed
Reading M117
  Th-T fluorescence, mean of three wells: 4.214
Reading M118
  Th-T fluorescence, mean of three wells: 4.194
Reading M119
  Th-T fluorescence, mean of three wells: 4.178
Reading M120
  Th-T fluorescence, mean of three wells: 4.1845
Reading M121
  Th-T fluorescence, mean of three wells: 4.166
Reading M122
  Th-T fluorescence, mean of three wells: 4.139
Reading M123
  Th-T fluorescence, mean of three wells: 4.16
Reading M124
  Th-T fluorescence, mean of three wells: 4.194
Reading M125
  Th-T fluorescence, mean of three wells: 4.155
Reading M126
  Th-T fluorescence, mean of three wells: 4.13
Reading M127
  Th-T fluorescence, mean of three wells: 4.172
Reading M128
  Th-T fluorescence, mean of three wells: 4.137
Reading M129
  Th-T fluorescence, mean of three wells: 4.1254
Reading M130
  Th-T fluorescence, mean of three wells: 4.128
Column suffix _10, measurement M19
  Th-T fluorescence, mean of three wells (Fig. 7a): 3.317
Column suffix _10, measurement M20
  Th-T fluorescence, mean of three wells (Fig. 7a): 3.391
Column suffix _10, measurement M21
  Th-T fluorescence, mean of three wells (Fig. 7a): 3.434
Column suffix _10, measurement M22
  Th-T fluorescence, mean of three wells (Fig. 7a): 3.448
Column suffix _10, measurement M23
  Th-T fluorescence, mean of three wells (Fig. 7a): 3.464
Column suffix _10, measurement M24
  Th-T fluorescence, mean of three wells (Fig. 7a): 3.465
Column suffix _10, measurement M25
  Th-T fluorescence, mean of three wells (Fig. 7a): 3.454
Column suffix _10, measurement M26
  Th-T fluorescence, mean of three wells (Fig. 7a): 3.452
Column suffix _10, measurement M27
  Th-T fluorescence, mean of three wells (Fig. 7a): 3.468
Column suffix _10, measurement M28
  Th-T fluorescence, mean of three wells (Fig. 7a): 3.469
Column suffix _10, measurement M29
  Th-T fluorescence, mean of three wells (Fig. 7a): 3.45
Column suffix _10, reading M1
  Th-T assay signal, mean of three wells (Fig. 7a): 0.2292
Column suffix _10, reading M2
  Th-T assay signal, mean of three wells (Fig. 7a): 0.2545
Column suffix _10, reading M3
  Th-T assay signal, mean of three wells (Fig. 7a): 0.2762
Column suffix _10, reading M4
  Th-T assay signal, mean of three wells (Fig. 7a): 0.324
Column suffix _10, reading M5
  Th-T assay signal, mean of three wells (Fig. 7a): 0.3535
Column suffix _10, reading M6
  Th-T assay signal, mean of three wells (Fig. 7a): 0.4731
Column suffix _10, reading M7
  Th-T assay signal, mean of three wells (Fig. 7a): 0.5173
Column suffix _10, reading M8
  Th-T assay signal, mean of three wells (Fig. 7a): 0.5644
Column suffix _10, reading M9
  Th-T assay signal, mean of three wells (Fig. 7a): 0.6382
Column suffix _10, reading M10
  Th-T assay signal, mean of three wells (Fig. 7a): 0.6392
Column suffix _10, reading M11
  Th-T assay signal, mean of three wells (Fig. 7a): 0.7204
Column suffix _10, reading M12
  Th-T assay signal, mean of three wells (Fig. 7a): 0.8506
Column suffix _10, reading M13
  Th-T assay signal, mean of three wells (Fig. 7a): 1.108
Column suffix _10, reading M14
  Th-T assay signal, mean of three wells (Fig. 7a): 1.585
Column suffix _10, reading M15
  Th-T assay signal, mean of three wells (Fig. 7a): 2.1202
Column suffix _10, reading M16
  Th-T assay signal, mean of three wells (Fig. 7a): 2.635
Column suffix _10, reading M17
  Th-T assay signal, mean of three wells (Fig. 7a): 2.976
Column suffix _10, reading M18
  Th-T assay signal, mean of three wells (Fig. 7a): 3.206
Column suffix _10, reading M85
  Fig. 7a Th-T reading, mean of three wells: 3.354
Column suffix _10, reading M86
  Fig. 7a Th-T reading, mean of three wells: 3.35
Column suffix _10, reading M87
  Fig. 7a Th-T reading, mean of three wells: 3.36
Column suffix _10, reading M88
  Fig. 7a Th-T reading, mean of three wells: 3.344
Column suffix _10, reading M89
  Fig. 7a Th-T reading, mean of three wells: 3.359
Column suffix _10, reading M90
  Fig. 7a Th-T reading, mean of three wells: 3.344
Column suffix _10, reading M91
  Fig. 7a Th-T reading, mean of three wells: 3.334
Column suffix _10, reading M92
  Fig. 7a Th-T reading, mean of three wells: 3.329
Column suffix _10, reading M93
  Fig. 7a Th-T reading, mean of three wells: 3.316
Column suffix _10, reading M94
  Fig. 7a Th-T reading, mean of three wells: 3.328
Column suffix _10, reading M95
  Fig. 7a Th-T reading, mean of three wells: 3.309
Column suffix _10, reading M96
  Fig. 7a Th-T reading, mean of three wells: 3.312
Column suffix _10, reading M97
  Fig. 7a Th-T reading, mean of three wells: 3.295
Column suffix _10, reading M98
  Fig. 7a Th-T reading, mean of three wells: 3.318
Column suffix _10, reading M99
  Fig. 7a Th-T reading, mean of three wells: 3.3
Column suffix _10, reading M100
  Fig. 7a Th-T reading, mean of three wells: 3.294
Column suffix _10, reading M101
  Fig. 7a Th-T reading, mean of three wells: 3.313
Column suffix _10, reading M102
  Fig. 7a Th-T reading, mean of three wells: 3.28
Column suffix _10, reading M103
  Fig. 7a Th-T reading, mean of three wells: 3.294
Column suffix _10, reading M104
  Fig. 7a Th-T reading, mean of three wells: 3.29
Column suffix _10, reading M105
  Fig. 7a Th-T reading, mean of three wells: 3.266
Column suffix _10, reading M106
  Fig. 7a Th-T reading, mean of three wells: 3.268
Column suffix _20, measurement M19
  Th-T fluorescence, mean of three wells (Fig. 7a): 3.146
Column suffix _20, measurement M20
  Th-T fluorescence, mean of three wells (Fig. 7a): 3.22
Column suffix _20, measurement M21
  Th-T fluorescence, mean of three wells (Fig. 7a): 3.265
Column suffix _20, measurement M22
  Th-T fluorescence, mean of three wells (Fig. 7a): 3.294
Column suffix _20, measurement M23
  Th-T fluorescence, mean of three wells (Fig. 7a): 3.285
Column suffix _20, measurement M24
  Th-T fluorescence, mean of three wells (Fig. 7a): 3.3066
Column suffix _20, measurement M25
  Th-T fluorescence, mean of three wells (Fig. 7a): 3.328
Column suffix _20, measurement M26
  Th-T fluorescence, mean of three wells (Fig. 7a): 3.367
Column suffix _20, measurement M27
  Th-T fluorescence, mean of three wells (Fig. 7a): 3.353
Column suffix _20, measurement M28
  Th-T fluorescence, mean of three wells (Fig. 7a): 3.346
Column suffix _20, measurement M29
  Th-T fluorescence, mean of three wells (Fig. 7a): 3.34
Column suffix _20, measurement M30
  Th-T fluorescence, mean of three wells (Fig. 7a): 3.361
Column suffix _20, reading M1
  Th-T assay signal, mean of three wells (Fig. 7a): 0.2139
Column suffix _20, reading M2
  Th-T assay signal, mean of three wells (Fig. 7a): 0.2391
Column suffix _20, reading M3
  Th-T assay signal, mean of three wells (Fig. 7a): 0.2688
Column suffix _20, reading M4
  Th-T assay signal, mean of three wells (Fig. 7a): 0.2877
Column suffix _20, reading M5
  Th-T assay signal, mean of three wells (Fig. 7a): 0.33
Column suffix _20, reading M6
  Th-T assay signal, mean of three wells (Fig. 7a): 0.4061
Column suffix _20, reading M7
  Th-T assay signal, mean of three wells (Fig. 7a): 0.4716
Column suffix _20, reading M8
  Th-T assay signal, mean of three wells (Fig. 7a): 0.5038
Column suffix _20, reading M9
  Th-T assay signal, mean of three wells (Fig. 7a): 0.5302
Column suffix _20, reading M10
  Th-T assay signal, mean of three wells (Fig. 7a): 0.5653
Column suffix _20, reading M11
  Th-T assay signal, mean of three wells (Fig. 7a): 0.6147
Column suffix _20, reading M12
  Th-T assay signal, mean of three wells (Fig. 7a): 0.7691
Column suffix _20, reading M13
  Th-T assay signal, mean of three wells (Fig. 7a): 1.152
Column suffix _20, reading M14
  Th-T assay signal, mean of three wells (Fig. 7a): 1.832
Column suffix _20, reading M15
  Th-T assay signal, mean of three wells (Fig. 7a): 2.436
Column suffix _20, reading M16
  Th-T assay signal, mean of three wells (Fig. 7a): 2.813
Column suffix _20, reading M17
  Th-T assay signal, mean of three wells (Fig. 7a): 2.993
Column suffix _20, reading M18
  Th-T assay signal, mean of three wells (Fig. 7a): 3.081
Column suffix _20, reading M85
  Fig. 7a Th-T reading, mean of three wells: 3.286
Column suffix _20, reading M86
  Fig. 7a Th-T reading, mean of three wells: 3.29
Column suffix _20, reading M87
  Fig. 7a Th-T reading, mean of three wells: 3.2956
Column suffix _20, reading M88
  Fig. 7a Th-T reading, mean of three wells: 3.332
Column suffix _20, reading M89
  Fig. 7a Th-T reading, mean of three wells: 3.367
Column suffix _20, reading M90
  Fig. 7a Th-T reading, mean of three wells: 3.341
Column suffix _20, reading M91
  Fig. 7a Th-T reading, mean of three wells: 3.299
Column suffix _20, reading M92
  Fig. 7a Th-T reading, mean of three wells: 3.303
Column suffix _20, reading M93
  Fig. 7a Th-T reading, mean of three wells: 3.313
Column suffix _20, reading M94
  Fig. 7a Th-T reading, mean of three wells: 3.332
Column suffix _20, reading M95
  Fig. 7a Th-T reading, mean of three wells: 3.309
Column suffix _20, reading M96
  Fig. 7a Th-T reading, mean of three wells: 3.268
Column suffix _20, reading M97
  Fig. 7a Th-T reading, mean of three wells: 3.26
Column suffix _20, reading M98
  Fig. 7a Th-T reading, mean of three wells: 3.269
Column suffix _20, reading M99
  Fig. 7a Th-T reading, mean of three wells: 3.3
Column suffix _20, reading M100
  Fig. 7a Th-T reading, mean of three wells: 3.292
